Columns and labels:
[1] = system: MCF-7; assay: Cytotoxicity in cell lines; type: cell-based; settings: Homo sapiens, MCF7; Table 4
Protocol: (§1) The cytotoxicity of exemplary compounds of the application was tested in multiple cell lines including MV-4-11, MOLM-13, MCF-7, MRC9, K562 and MM.1S. The therapeutic index was evaluated by determining the toxicity of the exemplary compounds in healthy cell lines including fibroblasts and HUVEC.

[2] = system: MOLM-13; assay: Cytotoxicity in cell lines; type: cell-based; settings: Homo sapiens, MOLM-13; Table 4; read-out: IC50 MOLM-13
Protocol: as §1

[3] = system: MV-4-11; assay: Cytotoxicity in cell lines; type: cell-based; settings: Homo sapiens, MV4-11, Table 4; read-out: IC50 MV-411
Protocol: as §1

[4] = biological target: T1, HDAC7 (Homo sapiens, UniProt Q8WUI4); assay: in vitro activity-based HDAC assay; type: biochemical; settings: human HDAC isoform panel, Table 1
T1 sequence (Q8WUI4 1-952): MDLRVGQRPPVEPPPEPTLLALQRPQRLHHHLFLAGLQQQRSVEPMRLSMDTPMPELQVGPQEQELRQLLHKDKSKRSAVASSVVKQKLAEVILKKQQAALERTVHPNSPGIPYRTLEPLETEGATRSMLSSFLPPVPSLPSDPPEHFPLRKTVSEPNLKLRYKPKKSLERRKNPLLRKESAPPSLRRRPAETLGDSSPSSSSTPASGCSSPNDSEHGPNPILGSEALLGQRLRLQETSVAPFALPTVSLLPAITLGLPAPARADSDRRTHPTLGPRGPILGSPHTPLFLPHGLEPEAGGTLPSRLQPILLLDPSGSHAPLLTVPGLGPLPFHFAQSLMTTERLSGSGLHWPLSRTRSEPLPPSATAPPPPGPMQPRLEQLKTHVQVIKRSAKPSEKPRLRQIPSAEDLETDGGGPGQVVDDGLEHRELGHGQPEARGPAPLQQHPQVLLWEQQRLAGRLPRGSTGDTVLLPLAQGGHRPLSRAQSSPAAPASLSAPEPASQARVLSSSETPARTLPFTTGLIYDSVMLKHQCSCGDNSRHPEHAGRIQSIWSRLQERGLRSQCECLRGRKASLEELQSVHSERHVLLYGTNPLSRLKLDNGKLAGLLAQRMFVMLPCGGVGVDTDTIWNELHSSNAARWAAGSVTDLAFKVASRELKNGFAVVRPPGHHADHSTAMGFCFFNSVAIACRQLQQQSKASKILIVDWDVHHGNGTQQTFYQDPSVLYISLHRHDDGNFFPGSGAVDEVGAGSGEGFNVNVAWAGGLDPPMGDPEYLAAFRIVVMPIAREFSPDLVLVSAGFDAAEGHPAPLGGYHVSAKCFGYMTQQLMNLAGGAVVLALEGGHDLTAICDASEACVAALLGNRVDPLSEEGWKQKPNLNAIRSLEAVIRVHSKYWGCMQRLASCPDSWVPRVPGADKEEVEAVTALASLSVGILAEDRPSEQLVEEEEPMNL
Protocol: (§2) The exemplary compounds of Formula I and structurally related compounds were synthesized to assess their structure-activity relationship. […] The IC50 values for each exemplary compound were used to calculate the selectivity of the exemplary compounds for Formula I to HDAC6. The selectivity of each exemplary compound for HDAC6 was determined from examining the potency of HDAC6 in relation to the highest binding affinity of the other HDAC isoforms tested.

[5] = biological target: HDAC5 (Homo sapiens, UniProt Q9UQL6); assay: in vitro activity-based HDAC assay; type: biochemical; settings: human HDAC isoform panel, Table 1
Protocol: as §2

[6] = biological target: HDAC2 (Homo sapiens, UniProt Q92769); assay: in vitro activity-based HDAC assay; type: biochemical; settings: human HDAC isoform panel, Table 1
Protocol: as §2

[7] = biological target: HDAC9 (Homo sapiens, UniProt Q9UKV0); assay: in vitro activity-based HDAC assay; type: biochemical; settings: human HDAC isoform panel, Table 1
Protocol: as §2

[8] = biological target: T2, HDAC10 (Homo sapiens, UniProt Q969S8); assay: in vitro activity-based HDAC assay; type: biochemical; settings: human HDAC isoform panel, Table 1
T2 sequence (Q969S8 1-669): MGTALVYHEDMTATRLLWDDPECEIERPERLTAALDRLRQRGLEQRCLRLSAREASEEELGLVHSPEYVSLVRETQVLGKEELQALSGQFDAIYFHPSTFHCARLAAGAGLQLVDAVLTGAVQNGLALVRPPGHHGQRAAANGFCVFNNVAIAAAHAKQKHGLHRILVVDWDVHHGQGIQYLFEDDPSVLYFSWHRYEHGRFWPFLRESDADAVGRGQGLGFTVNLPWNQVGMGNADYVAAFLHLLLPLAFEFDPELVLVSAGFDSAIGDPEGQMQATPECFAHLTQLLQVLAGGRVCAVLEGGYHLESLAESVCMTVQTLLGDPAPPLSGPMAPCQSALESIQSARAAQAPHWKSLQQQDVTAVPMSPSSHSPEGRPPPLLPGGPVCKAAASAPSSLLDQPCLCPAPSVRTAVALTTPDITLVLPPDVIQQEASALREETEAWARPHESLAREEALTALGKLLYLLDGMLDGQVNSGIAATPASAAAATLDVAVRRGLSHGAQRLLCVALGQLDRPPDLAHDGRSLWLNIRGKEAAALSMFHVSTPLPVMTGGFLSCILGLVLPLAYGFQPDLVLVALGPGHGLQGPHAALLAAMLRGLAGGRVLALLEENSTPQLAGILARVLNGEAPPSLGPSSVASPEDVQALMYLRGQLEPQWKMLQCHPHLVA
Protocol: as §2

[9] = biological target: HDAC4 (Homo sapiens, UniProt P56524); assay: in vitro activity-based HDAC assay; type: biochemical; settings: human HDAC isoform panel, Table 1
Protocol: as §2

[10] = biological target: HDAC1 (Homo sapiens, UniProt Q13547); assay: in vitro activity-based HDAC assay; type: biochemical; settings: human HDAC isoform panel, Table 1
Protocol: as §2

[11] = system: MRC9; assay: Cytotoxicity in cell lines; type: cell-based; settings: Table 4
Protocol: as §1

[12] = system: MM.1S; assay: Cytotoxicity in cell lines; type: cell-based; settings: Homo sapiens, MM1.S; Table 4
Protocol: as §1

Sequence of HDAC5 (Q9UQL6 whole entry, canonical isoform): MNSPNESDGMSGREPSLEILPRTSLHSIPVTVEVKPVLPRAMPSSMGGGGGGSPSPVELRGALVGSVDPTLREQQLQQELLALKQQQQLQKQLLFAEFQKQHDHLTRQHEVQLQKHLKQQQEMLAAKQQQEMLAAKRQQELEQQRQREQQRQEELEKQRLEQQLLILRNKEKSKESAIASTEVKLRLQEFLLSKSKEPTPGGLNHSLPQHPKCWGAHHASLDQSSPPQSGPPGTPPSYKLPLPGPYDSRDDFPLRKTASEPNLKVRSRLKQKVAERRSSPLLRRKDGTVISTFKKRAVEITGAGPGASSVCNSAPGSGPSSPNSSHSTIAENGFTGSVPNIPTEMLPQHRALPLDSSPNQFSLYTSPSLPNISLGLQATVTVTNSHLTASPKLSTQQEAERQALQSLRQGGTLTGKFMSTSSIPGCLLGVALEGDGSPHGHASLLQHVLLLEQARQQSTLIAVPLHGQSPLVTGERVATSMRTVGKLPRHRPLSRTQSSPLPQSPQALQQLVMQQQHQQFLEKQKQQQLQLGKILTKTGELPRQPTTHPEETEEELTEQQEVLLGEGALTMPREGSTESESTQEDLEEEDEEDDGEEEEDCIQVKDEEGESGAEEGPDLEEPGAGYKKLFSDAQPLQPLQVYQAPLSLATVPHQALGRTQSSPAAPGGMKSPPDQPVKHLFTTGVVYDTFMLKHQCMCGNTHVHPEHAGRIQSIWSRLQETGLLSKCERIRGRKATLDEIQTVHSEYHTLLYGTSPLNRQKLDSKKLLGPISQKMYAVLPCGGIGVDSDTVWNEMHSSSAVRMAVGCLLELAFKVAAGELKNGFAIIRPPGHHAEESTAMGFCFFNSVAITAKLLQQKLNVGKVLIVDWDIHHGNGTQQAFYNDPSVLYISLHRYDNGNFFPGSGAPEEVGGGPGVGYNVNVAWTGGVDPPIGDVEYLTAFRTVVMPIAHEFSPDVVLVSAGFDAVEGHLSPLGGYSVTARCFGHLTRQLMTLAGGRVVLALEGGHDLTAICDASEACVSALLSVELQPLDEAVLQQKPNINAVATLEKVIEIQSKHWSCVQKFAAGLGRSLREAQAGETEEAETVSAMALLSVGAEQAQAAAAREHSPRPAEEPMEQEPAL
Sequence of HDAC2 (Q92769 whole entry, canonical isoform): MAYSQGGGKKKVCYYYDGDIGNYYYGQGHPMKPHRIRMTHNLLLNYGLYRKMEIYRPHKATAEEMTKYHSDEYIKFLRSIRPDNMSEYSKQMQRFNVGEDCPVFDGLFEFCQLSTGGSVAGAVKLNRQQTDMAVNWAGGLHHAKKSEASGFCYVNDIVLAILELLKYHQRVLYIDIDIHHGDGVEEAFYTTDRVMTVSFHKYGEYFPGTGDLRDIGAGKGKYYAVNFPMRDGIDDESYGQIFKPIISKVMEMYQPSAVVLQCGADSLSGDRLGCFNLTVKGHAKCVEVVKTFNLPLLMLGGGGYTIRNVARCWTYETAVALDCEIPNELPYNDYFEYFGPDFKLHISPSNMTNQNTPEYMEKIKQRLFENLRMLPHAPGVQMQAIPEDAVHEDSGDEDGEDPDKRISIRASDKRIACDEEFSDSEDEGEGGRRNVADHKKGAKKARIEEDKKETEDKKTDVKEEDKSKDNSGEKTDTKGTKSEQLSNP
Sequence of HDAC1 (Q13547 whole entry, canonical isoform): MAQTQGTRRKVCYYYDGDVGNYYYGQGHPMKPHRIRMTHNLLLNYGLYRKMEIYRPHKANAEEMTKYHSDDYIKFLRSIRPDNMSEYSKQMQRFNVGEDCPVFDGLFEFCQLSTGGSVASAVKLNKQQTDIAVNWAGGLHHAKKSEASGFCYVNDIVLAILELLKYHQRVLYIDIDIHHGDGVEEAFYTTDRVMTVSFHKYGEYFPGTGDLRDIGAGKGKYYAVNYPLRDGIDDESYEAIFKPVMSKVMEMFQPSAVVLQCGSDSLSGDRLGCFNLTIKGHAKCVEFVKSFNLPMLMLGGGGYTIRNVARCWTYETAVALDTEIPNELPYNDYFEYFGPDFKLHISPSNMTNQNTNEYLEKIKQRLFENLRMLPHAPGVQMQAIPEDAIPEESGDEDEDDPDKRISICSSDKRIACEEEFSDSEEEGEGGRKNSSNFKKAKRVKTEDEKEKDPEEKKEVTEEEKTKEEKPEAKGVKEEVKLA
Sequence of HDAC9 (Q9UKV0 whole entry, canonical isoform): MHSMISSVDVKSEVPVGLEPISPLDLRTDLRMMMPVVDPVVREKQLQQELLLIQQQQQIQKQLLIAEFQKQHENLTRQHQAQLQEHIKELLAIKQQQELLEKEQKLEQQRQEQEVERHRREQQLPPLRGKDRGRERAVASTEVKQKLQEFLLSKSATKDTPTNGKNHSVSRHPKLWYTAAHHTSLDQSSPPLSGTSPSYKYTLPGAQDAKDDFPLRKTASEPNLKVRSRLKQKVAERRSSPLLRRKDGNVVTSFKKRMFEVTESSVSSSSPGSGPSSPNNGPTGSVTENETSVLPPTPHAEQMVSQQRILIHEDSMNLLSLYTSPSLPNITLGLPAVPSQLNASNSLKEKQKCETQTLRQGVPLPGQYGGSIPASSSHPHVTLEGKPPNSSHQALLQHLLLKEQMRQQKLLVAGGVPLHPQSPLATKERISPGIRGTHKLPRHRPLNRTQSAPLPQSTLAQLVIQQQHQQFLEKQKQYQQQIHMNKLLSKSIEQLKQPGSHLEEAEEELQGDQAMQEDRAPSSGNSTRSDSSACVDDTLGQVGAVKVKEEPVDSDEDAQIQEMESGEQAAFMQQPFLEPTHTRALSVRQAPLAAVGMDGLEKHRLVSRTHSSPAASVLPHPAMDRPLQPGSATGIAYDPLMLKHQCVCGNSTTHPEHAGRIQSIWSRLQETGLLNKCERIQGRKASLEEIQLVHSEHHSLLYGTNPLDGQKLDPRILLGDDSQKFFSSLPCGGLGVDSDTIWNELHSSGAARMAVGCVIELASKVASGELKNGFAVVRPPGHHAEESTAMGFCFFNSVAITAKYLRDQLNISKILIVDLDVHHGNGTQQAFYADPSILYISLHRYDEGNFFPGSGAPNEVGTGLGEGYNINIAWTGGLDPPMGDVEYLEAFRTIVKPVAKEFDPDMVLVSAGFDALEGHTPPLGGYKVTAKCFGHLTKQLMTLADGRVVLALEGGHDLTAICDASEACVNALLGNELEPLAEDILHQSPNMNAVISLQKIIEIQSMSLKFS
Sequence of HDAC4 (P56524 whole entry, canonical isoform): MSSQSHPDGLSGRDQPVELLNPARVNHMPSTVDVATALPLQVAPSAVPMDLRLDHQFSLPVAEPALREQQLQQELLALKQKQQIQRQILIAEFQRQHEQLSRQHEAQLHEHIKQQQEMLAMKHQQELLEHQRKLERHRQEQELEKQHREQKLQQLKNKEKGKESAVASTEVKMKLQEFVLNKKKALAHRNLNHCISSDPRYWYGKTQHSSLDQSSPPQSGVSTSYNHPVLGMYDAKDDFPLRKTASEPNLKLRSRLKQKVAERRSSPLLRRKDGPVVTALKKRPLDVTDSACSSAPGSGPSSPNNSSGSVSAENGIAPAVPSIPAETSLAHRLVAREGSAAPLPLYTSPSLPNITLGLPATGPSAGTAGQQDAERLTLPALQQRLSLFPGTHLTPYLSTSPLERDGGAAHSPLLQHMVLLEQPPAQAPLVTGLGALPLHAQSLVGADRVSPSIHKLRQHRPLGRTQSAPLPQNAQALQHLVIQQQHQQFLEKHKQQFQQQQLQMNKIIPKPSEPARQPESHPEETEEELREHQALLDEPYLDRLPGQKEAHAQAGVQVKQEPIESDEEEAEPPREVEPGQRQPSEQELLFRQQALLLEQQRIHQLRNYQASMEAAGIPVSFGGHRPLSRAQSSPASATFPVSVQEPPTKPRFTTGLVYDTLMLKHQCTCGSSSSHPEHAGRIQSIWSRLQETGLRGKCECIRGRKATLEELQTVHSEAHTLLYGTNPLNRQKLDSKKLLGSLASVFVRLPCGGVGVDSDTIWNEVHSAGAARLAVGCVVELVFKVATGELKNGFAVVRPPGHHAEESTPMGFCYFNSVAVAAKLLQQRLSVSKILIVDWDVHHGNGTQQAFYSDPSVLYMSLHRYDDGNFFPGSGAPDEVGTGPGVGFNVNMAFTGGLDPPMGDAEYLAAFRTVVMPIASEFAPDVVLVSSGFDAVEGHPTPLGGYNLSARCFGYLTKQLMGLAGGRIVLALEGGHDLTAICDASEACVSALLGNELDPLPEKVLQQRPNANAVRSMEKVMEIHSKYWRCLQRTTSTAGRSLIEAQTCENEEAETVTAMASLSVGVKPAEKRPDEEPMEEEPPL

Row | SMILES | IC50 [1] [µM] | IC50 [2] [µM] | IC50 [3] [µM] | IC50 [4] [µM] | IC50 [5] [µM] | IC50 [6] [µM] | IC50 [7] [µM] | IC50 [8] [µM] | IC50 [9] [µM] | IC50 [10] [µM] | IC50 [11] [µM] | IC50 [12] [µM]
1 | O=C(NO)c1ccc(CN(Cc2cccnc2)S(=O)(=O)c2cc(F)c(F)c(F)c2F)c(C(F)(F)F)c1 [Compound I-31, N-hydroxy-4-((2,3,4,5-tetrafluoro-N-(pyridin-3-ylmethyl)phenylsulfonamido)methyl)-3-(trifluoromethyl)benzamide] | 5 | 1.6 | 3.4 |  |  |  |  |  |  |  |  | 
2 | CC(C)N(Cc1ccc(C(=O)NO)cc1F)S(=O)(=O)c1cc(F)c(F)c(F)c1F [Compound I-50, 3-fluoro-N-hydroxy-4-(((2,3,4,5-tetrafluoro-N-isopropylphenyl)sulfonamido)methyl)benzamide] |  |  | 1.6 | > 1 | > 1 | > 1 | > 1 | > 1 | > 1 | > 1 | > 50 | 1.2
